According to the supplement of paper PMC10307832:

Compound: CC[C@H](CO)Nc1nc(NCc2ccccc2)c2ncn(C(C)C)c2n1 [Seliciclib] + CC(C)C[C@H](NC(=O)[C@H](Cc1ccccc1)NC(=O)c1cnccn1)B(O)O [Bortezomib] (partner 0.002 µM)
Assay: relative viability (nuclei count vs DMSO), 5 days (fraction); higher = more cells survive
Summary of the method: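 Medians of duplicate plates are given as relative viability. That measure is the nuclei count in treated wells divided by the count in vehicle wells. Counts were taken on 4× images of lung cancer cell lines in 1536-well plates, 5 days after pin-tool dosing the day after seeding with one drug alone or a fixed anchor-drug dose plus five library-drug doses (not always all listed) in √10 steps.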

| Cell Line | relative viability (first compound 0.08 µM) | relative viability (first compound 0.253 µM) | relative viability (first compound 0.8 µM) | relative viability (first compound 2.53 µM) | relative viability (first compound 8 µM) |
| --- | --- | --- | --- | --- | --- |
| H3255 | 0.833 | 0.828 | 0.753 | 0.605 | 0.625 |
| EPLC-272H | 0.872 | 0.676 | 0.991 | 1.03 | 0.907 |
| PC-3 [JPC-3] | 0.895 | 0.911 | 0.738 | 0.695 | 0.742 |
| EKVX | 1.03 | 1.07 | 0.985 | 0.854 | 0.861 |
| ChaGo-K-1 | 0.914 | 0.517 | 0.947 | 0.83 | 0.454 |
| NCI-H23 | 0.84 | 0.776 | 1.1 | 0.496 | 0.895 |
| EMC-BAC-2 | 1.05 | 0.91 | 1.11 | 0.836 | 1.07 |
| LOU-NH91 | 0.5 | 0.519 | 0.518 | 0.408 | 0.399 |
| LU99A | 1.16 | 1.05 | 1.01 | 0.94 | 0.803 |
| NCI-H460 | 1.14 | 1.26 | 1.09 | 1.48 | 0.912 |
| 201T | 1.12 | 1.18 | 1.07 | 1.1 | 1.01 |
| NCI-H2405 | 0.984 | 0.956 | 0.946 | 0.922 | 0.905 |
| NCI-H1703 | 0.416 | 0.297 | 0.371 | 0.353 | 0.249 |
| NCI-H1755 | 0.928 | 0.961 | 0.896 | 0.973 | 0.913 |
| NCI-H2087 | 0.73 | 0.792 | 0.719 | 0.752 | 0.661 |
| NCI-H2228 | 1.05 | 0.943 | 0.954 | 0.978 | 0.713 |
| NCI-H727 | 0.759 | 0.774 | 0.578 | 0.585 | 0.716 |
| NCI-H650 | 0.764 | 0.813 | 1.15 | – | 0.682 |
| NCI-H520 | 0.521 | 0.507 | 0.581 | 0.679 | 0.429 |
| EBC-1 | 0.554 | 0.553 | 0.623 | 0.466 | 0.379 |
| NCI-H661 | 0.778 | 0.871 | 0.675 | 0.79 | 0.58 |
| NCI-H1299 | 0.995 | 1.1 | 0.985 | 1.04 | 0.992 |
| NCI-H1993 | 1.12 | 0.878 | 0.936 | 0.784 | 0.924 |

| Cell Line | relative viability (first compound 0.08 µM) | relative viability (first compound 0.253 µM) | relative viability (first compound 0.8 µM) | relative viability (first compound 2.53 µM) | relative viability (first compound 8 µM) |
| --- | --- | --- | --- | --- | --- |
| NCI-H838 | 0.82 | 0.879 | 0.762 | 0.727 | 0.487 |
| NCI-H1437 | 0.436 | 0.524 | 0.47 | 0.422 | 0.39 |
| LCLC-103H | 0.94 | 1.03 | 0.92 | 0.939 | 1.01 |
| NCI-H441 | 0.662 | 0.429 | 0.314 | 0.406 | 0.531 |
| SK-LU-1 | 1.07 | 1.23 | 1.3 | 1.08 | 0.771 |
| BEN | 0.871 | – | 0.82 | 0.701 | 0.659 |
| LC-2-ad | 1.02 | 0.514 | 0.986 | 0.958 | 0.816 |
| COR-L23 | 1.01 | 1.1 | 0.962 | 1.06 | 0.751 |
| NCI-H1650 | 0.214 | 0.217 | 0.2 | 0.21 | 0.178 |
| RERF-LC-KJ | 1.04 | 1.02 | 1.09 | 1.14 | 1.07 |
| NCI-H1915 | 0.961 | 1.05 | 0.951 | 0.987 | 0.743 |
| NCI-H596 | 1.1 | 0.892 | 0.96 | 1.19 | 0.914 |
| IA-LM | 0.78 | 0.94 | 0.708 | 0.817 | 0.729 |
| NCI-H2009 | 1.05 | 1.21 | 0.908 | 0.911 | 0.941 |
| NCI-H2126 | 1.12 | 1.14 | 1.07 | 0.957 | 1.04 |
| LXF-289 | 0.981 | 1.11 | 0.904 | 0.971 | 0.838 |
| NCI-H1563 | 0.856 | 0.79 | 0.892 | 0.806 | 0.861 |
| HCC-44 | 0.841 | 0.885 | 0.82 | 0.758 | 0.881 |
| PC-14 | 0.832 | 0.836 | 0.877 | 0.846 | 0.701 |
| HOP-62 | 0.837 | 0.754 | 0.684 | 0.868 | 0.331 |
| NCI-H1666 | 0.799 | 0.739 | 0.809 | 0.66 | 0.568 |
| NCI-H1355 | 1.16 | 1.1 | 1.23 | 1.03 | 1.11 |
| HCC-827 | 1.08 | 1.03 | 1.05 | 1.04 | 0.881 |

| Cell Line | relative viability (first compound 0.08 µM) | relative viability (first compound 0.253 µM) | relative viability (first compound 0.8 µM) | relative viability (first compound 2.53 µM) | relative viability (first compound 8 µM) |
| --- | --- | --- | --- | --- | --- |
| HARA | 1.09 | 1.27 | 1.04 | 1.25 | 1.03 |
| HCC-366 | 0.987 | 1.06 | 1.01 | 1.08 | 0.908 |
| NCI-H322M | 1.21 | 1.4 | 1.18 | 1.23 | 1.09 |
| NCI-H2347 | 1.22 | 0.927 | 0.908 | – | 0.847 |
| NCI-H1975 | 0.372 | 0.348 | 0.345 | 0.322 | 0.218 |
| UMC-11 | 0.715 | 0.932 | 0.831 | 0.827 | 0.529 |
| ABC-1 | 0.318 | 0.312 | 0.296 | 0.274 | 0.339 |
| A-427 | 0.975 | 0.944 | 1.04 | 0.925 | 0.916 |
| LCLC-97TM1 | 0.816 | 0.767 | 0.646 | 0.163 | 0.195 |
| HCC-15 | 1.05 | 1.1 | 0.898 | 0.966 | 0.826 |
| NCI-H647 | 0.789 | 0.849 | 0.941 | 1.05 | 0.891 |
| SW 1573 | 0.923 | 0.876 | 1.02 | 1.02 | 0.868 |
| NCI-H1651 | 1 | 0.925 | 0.897 | 0.836 | 0.947 |
| NCI-H1792 | 1.03 | 0.96 | 0.898 | 0.904 | 0.884 |
| NCI-H2023 | 0.998 | 1.1 | 1.1 | 0.747 | 0.84 |
| COR-L 105 | 0.876 | 0.961 | 0.676 | 0.535 | 0.774 |
| NCI-H1734 | 0.873 | 0.833 | 0.882 | 1.08 | 0.824 |
| NCI-H3122 | 1.03 | 1.04 | 0.995 | 0.973 | 0.967 |
| CAL-12T | 0.936 | 1.36 | 0.888 | 0.785 | 0.567 |
| HCC-78 | 0.532 | 0.471 | 0.433 | 0.373 | 0.396 |
| NCI-H2085 | 0.759 | 1.09 | 1.1 | 1.03 | 0.841 |
